pKi: −log10 of the molar value.
What was measured:
[1] = Metabolic stability in human liver microsomes (HLM); type: in vitro ADME; settings: 0.50 mg protein/mL, NADPH; for Clint: 1 μM compound; for half-life at 1 μM: both sexes, human, pooled human liver microsomes, pH 7.4, 1 μM compound
Method: (§1) HLM Stability. Pooled HLM from adult male and female donors (Corning 452117) were used. Microsomal incubations were carried out in multi-well plates. Liver microsomal incubation medium consisted of PBS (100 mM, pH 7.4), MgCl2 (1 mM), and NADPH (1 nmM), with 0.50 mg of liver microsomal protein per mL. Control incubations were performed by replacing the NADPH-cofactor system with PBS. Test compounds (1 μM, final solvent concentration 1.0%) were incubated with microsomes at 37° C. with constant shaking, Six time points over 60 minutes were analyzed, with 60 μL aliquots of the reaction mixture being drawn at each time point. The reaction aliquots were stopped by adding 180 μL of cold (4° C.) acetonitrile containing 200 ng/mL tolbutamide and 200 ng/mL labetalol as internal standards (IS), followed by shaking for 10 minutes, and then protein sedimentation by centrifugation at 4,000 rpm for 20 minutes at 4° C. Supernatant samples (80 μL) were diluted with water (240 μL) and analyzed for parent compound remaining using a fit-for-purpose liquid chromatography-tandem mass spectrometry (LC-MS/MS) method.
(§2) Data Analysis. The elimination constant (kel), half-life (t1/2) and intrinsic clearance (Clint) were determined in a plot of […] versus time, using linear regression analysis.

[2] = Metabolic stability in rat liver microsomes (RLM); type: in vitro ADME, Sprague Dawley rats; settings: male, Sprague Dawley, rat, pooled rat liver microsomes, pH 7.4, 1 μM compound, 0.50 mg protein/mL, NADPH
Method: as §1, with “RLM” for “HLM”, “from” for “from adult”, “Sprague Dawley rats (XenoTech R1000)” for “and female donors (Corning 452117)”, “mM),” for “nmM),”, “shaking.” for “shaking,”
as §2

[3] = Metabolic stability in Gottingen minipig liver microsomes (MPLM); type: in vitro ADME, Gottingen minipigs; settings: pooled minipig liver microsomes, pH 7.4, 1 μM compound, 0.50 mg protein/mL, NADPH
Method: as §1, with “MPLM” for “HLM”, “Gottingen minipigs (Xenotech Z6000)” for “adult male and female donors (Corning 452117)”, “mM” for “mM,”, “mM),” for “nmM),”, “shaking.” for “shaking,”
as §2

[4] = Metabolic stability in mouse liver microsomes (MLM); type: in vitro ADME, CD-1 mice; settings: male, CD-1, mouse, pooled mouse liver microsomes, pH 7.4, 1 μM compound, 0.50 mg protein/mL, NADPH
Method: as §1, with “MLM” for “HLM”, “from” for “from adult”, “CD-1 mice (XenoTech M1000)” for “and female donors (Corning 452117)”, “mM),” for “nmM),”, “shaking.” for “shaking,”
Data Analysis. The elimination constant (kel), half-life (t1/2) and intrinsic clearance (Clint) were determined in a plot of ln(AUC) versus […], using linear regression analysis.

[5] = molecular target: MK-801 binding site of the N-methyl-D-aspartate receptor (NMDAR); test: NMDA receptor radioligand binding with [3H]MK-801; set-up: species or system Wistar rat; settings: for pKi: [3H]MK-801 displacement, Wistar rat brain (minus cerebellum), read-out: NMDAR Ki (95% CI)
Method: The binding affinities of disclosed compounds at the MK-801 binding site of the N-methyl-D-aspartate receptor (NMDAR) were determined in radioligand binding experiments (Table 13).
Radioligand Binding. Affinity of the test compounds for NMDAR was determined in radioligand binding experiments with [^3H]MK-801 by Eurofins Panlabs, Inc., using methods adapted from the literature (Javitt el al. 1987; Reynolds et al. 1989) and under the conditions described in Table 14.

Compound | Clint [1] [μL/min/m] | half-life at 1 μM [1] [h] | half-life at 1 μM [2] [h] | microsomal CLint at 1 μM [2] [µL/min/mg] | half-life at 1 μM [3] [h] | microsomal CLint at 1 μM [3] [µL/min/mg] | half-life at 1 μM [4] [h] | microsomal CLint at 1 μM [4] [µL/min/mg] | pKi [5] | NMDAR binding potency relative to enantiomer 2S (less potent) ([5]; MK-801 site of NMDAR) [fold]
N[C@]1(c2ccc(F)cc2)CCCCC1=O [Compound 1S, (S)-2-amino-2-(4-fluorophenyl)cyclohexan-1-one] | <9.6 | > 2.42 | > 2.42 | < 9.6 | > 2.42 | < 9.6 | > 2.42 | < 9.6 | 5.77 | –
N[C@@]1(c2ccc(F)cc2)CCCCC1=O [Compound 1R, (R)-2-amino-2-(4-fluorophenyl)cyclohexan-1-one] | <9.6 | > 2.42 | > 2.42 | < 9.6 | – | – | > 2.42 | < 9.6 | – | –
CNC1(c2ccccc2Cl)CCCCC1=O (racemic) [racemic ketamine, ketamine] | 25.5 | 0.907 | 0.0933 | 294 | 0.107 | 218 | 0.257 | 90.1 | – | –
CN[C@]1(c2ccc(F)cc2)CCCCC1=O [Compound 2S, (S)-2-(4-fluorophenyl)-2-(methylamino)cyclohexan-1-one] | <9.6 | > 2.42 | 1.01 | 22.8 | 0.515 | 44.9 | 1.79 | 12.9 | 5.92 | –
N[C@]1(c2cccc(F)c2)CCCCC1=O [Compound 3S] | <9.6 | > 2.42 | 1.58 | 14.6 | > 2.42 | < 9.6 | 2.05 | 11.3 | 5.77 | –
CN[C@@]1(c2ccc(F)cc2)CCCCC1=O [Compound 2R, (R)-2-(4-fluorophenyl)-2(methylamino)cyclohexan-1-one] | <9.6 | > 2.42 | 1.3 | 17.8 | 0.633 | 36.5 | 2.12 | 10.9 | 5.48 | ~3
